Data published in ChEMBL document CHEMBL3132769, “Fragment growing to retain or alter the selectivity of anchored kinase hinge-binding fragments” (Medchemcomm, 2014).

Tests used:
[1] = biological target: MAP kinase-activated protein kinase 2 (Homo sapiens) (UniProt P49137); assay: Inhibition of human full length MAPKAPK2 expressed in baculovirus assessed as substrate phosphorylation using fluorescence-labelled peptides as substrate at 0.06 uM after 90 mins by microfluidic peptide phosphorylation assay
[2] = biological target: Mitogen-activated protein kinase 14 (Homo sapiens) (UniProt Q16539); assay: Inhibition of human truncated p38 alpha expressed in Escherichia coli cell assessed as substrate phosphorylation using fluorescence-labelled peptides as substrate at 2 uM after 90 mins by microfluidic peptide phosphorylation assay
[3] = test system: Tyrosine-protein kinase ABL1 (Homo sapiens), P00519 [T315I]; assay: Inhibition of human truncated ABL T315I mutant expressed in baculovirus assessed as substrate phosphorylation using fluorescence-labelled peptides as substrate at 95 uM after 90 mins by microfluidic peptide phosphorylation assay
[4] = biological target: Calcium/calmodulin-dependent protein kinase type II subunit gamma (Homo sapiens) (UniProt Q13555); assay: Inhibition of human CAMK2 gamma catalytic domain expressed in baculovirus assessed as substrate phosphorylation using fluorescence-labelled peptides as substrate at 95 uM after 90 mins by microfluidic peptide phosphorylation assay
[5] = test system: T1, Receptor-type tyrosine-protein kinase FLT3 (Homo sapiens), P36888 [D835Y]; assay: Inhibition of human FLT3 D835Y mutant catalytic domain expressed in baculovirus assessed as substrate phosphorylation using fluorescence-labelled peptides as substrate at 95 uM after 90 mins by microfluidic peptide phosphorylation assay
T1 sequence (whole entry): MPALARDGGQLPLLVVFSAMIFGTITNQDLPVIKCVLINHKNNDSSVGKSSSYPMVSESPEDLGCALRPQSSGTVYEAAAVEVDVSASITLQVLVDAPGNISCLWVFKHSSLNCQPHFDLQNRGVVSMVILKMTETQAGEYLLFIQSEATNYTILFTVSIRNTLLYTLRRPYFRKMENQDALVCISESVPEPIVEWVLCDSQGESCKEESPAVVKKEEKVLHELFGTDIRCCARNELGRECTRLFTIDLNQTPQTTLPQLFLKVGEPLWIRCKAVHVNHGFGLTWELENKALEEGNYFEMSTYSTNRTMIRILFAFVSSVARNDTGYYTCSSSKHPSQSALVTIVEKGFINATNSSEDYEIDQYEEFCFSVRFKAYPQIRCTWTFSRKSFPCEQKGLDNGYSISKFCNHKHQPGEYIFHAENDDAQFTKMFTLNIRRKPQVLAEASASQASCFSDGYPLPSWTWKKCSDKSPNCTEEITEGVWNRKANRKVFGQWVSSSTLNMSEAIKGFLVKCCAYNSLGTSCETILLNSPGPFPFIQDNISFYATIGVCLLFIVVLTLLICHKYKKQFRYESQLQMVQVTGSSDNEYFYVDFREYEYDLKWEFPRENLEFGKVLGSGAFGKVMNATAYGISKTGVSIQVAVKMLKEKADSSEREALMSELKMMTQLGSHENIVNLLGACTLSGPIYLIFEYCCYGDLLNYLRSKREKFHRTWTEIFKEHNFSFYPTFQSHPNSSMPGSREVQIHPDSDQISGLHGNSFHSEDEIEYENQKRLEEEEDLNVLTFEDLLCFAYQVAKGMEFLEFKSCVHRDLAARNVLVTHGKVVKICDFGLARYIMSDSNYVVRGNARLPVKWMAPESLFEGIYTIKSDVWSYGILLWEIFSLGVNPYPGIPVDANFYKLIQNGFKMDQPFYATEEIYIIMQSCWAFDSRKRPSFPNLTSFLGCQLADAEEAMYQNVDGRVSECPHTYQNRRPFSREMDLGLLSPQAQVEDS

[6] = biological target: T2, Serine/threonine-protein kinase BRSK1 (Homo sapiens) (UniProt Q8TDC3); details: 1000 uM
T2 sequence (whole entry): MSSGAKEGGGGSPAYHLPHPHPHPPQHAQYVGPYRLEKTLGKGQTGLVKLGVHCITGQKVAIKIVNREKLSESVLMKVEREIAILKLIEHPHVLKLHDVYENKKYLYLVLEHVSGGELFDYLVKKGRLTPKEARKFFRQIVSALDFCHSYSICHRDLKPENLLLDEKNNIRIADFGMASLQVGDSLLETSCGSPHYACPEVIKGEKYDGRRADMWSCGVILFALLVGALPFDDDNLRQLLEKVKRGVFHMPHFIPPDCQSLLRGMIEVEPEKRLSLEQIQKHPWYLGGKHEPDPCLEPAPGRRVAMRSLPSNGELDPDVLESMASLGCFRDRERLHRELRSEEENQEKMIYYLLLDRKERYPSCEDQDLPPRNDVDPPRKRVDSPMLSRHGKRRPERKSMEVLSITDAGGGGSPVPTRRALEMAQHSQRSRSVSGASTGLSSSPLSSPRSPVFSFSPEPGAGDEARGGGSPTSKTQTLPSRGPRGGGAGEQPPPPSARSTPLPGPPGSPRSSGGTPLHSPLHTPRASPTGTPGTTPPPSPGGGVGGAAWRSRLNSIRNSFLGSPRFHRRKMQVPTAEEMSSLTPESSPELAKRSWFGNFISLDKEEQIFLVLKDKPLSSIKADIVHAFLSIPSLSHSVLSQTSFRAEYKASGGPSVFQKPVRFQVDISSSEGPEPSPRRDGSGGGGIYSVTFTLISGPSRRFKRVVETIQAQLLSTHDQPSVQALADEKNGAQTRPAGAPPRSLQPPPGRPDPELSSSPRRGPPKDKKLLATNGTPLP
Description: Inhibition of human full length BRSK1 expressed in baculovirus assessed as substrate phosphorylation using fluorescence-labelled peptides as substrate at 1000 uM after 90 mins by microfluidic peptide phosphorylation assay

[7] = biological target: T3, MAP kinase-activated protein kinase 5 (Homo sapiens) (UniProt Q8IW41); assay: Inhibition of human full length PRAK expressed in baculovirus assessed as substrate phosphorylation using fluorescence-labelled peptides as substrate at 70 uM after 90 mins by microfluidic peptide phosphorylation assay
T3 sequence (whole entry): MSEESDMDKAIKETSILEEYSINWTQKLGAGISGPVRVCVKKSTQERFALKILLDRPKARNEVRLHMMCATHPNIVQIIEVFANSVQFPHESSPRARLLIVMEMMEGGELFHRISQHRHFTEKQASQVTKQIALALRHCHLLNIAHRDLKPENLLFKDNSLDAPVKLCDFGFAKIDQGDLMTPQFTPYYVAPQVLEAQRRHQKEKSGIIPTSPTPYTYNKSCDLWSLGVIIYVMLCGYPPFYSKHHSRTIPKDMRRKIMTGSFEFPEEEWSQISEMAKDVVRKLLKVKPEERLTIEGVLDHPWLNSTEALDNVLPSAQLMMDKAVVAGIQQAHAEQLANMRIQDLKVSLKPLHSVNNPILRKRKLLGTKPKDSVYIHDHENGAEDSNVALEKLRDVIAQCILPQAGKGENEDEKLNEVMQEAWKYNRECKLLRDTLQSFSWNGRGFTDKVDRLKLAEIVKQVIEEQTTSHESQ

Sequence of Calcium/calmodulin-dependent protein kinase type II subunit gamma (Homo sapiens) (Q13555 whole entry, the tested form may be a part): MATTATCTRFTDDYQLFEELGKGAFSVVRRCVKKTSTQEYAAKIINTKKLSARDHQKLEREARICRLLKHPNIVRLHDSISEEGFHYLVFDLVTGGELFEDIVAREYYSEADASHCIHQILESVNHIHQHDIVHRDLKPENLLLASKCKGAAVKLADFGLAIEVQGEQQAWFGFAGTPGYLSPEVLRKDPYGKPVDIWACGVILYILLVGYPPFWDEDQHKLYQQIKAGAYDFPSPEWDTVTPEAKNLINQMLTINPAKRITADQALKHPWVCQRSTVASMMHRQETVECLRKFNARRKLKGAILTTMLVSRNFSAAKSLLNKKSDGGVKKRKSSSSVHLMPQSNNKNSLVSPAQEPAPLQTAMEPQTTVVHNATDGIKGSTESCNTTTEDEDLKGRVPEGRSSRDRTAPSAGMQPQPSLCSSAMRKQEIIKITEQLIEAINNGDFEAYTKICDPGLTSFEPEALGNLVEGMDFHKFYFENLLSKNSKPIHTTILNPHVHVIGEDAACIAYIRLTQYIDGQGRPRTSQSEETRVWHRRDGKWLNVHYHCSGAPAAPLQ
Sequence of MAP kinase-activated protein kinase 2 (Homo sapiens) (P49137 whole entry, looked up, the tested form may be a part): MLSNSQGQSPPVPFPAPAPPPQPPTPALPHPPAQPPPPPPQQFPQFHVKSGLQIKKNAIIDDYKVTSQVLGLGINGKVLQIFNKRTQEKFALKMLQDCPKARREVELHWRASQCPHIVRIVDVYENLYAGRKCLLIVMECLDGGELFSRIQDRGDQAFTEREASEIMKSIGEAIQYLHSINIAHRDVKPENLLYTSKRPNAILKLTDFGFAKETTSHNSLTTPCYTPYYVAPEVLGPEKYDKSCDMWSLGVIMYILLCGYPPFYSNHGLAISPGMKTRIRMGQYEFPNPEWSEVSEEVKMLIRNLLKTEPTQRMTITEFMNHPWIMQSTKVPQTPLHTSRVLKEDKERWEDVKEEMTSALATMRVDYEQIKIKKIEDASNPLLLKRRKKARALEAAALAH
Sequence of Mitogen-activated protein kinase 14 (Homo sapiens) (Q16539 whole entry, the tested form may be a part): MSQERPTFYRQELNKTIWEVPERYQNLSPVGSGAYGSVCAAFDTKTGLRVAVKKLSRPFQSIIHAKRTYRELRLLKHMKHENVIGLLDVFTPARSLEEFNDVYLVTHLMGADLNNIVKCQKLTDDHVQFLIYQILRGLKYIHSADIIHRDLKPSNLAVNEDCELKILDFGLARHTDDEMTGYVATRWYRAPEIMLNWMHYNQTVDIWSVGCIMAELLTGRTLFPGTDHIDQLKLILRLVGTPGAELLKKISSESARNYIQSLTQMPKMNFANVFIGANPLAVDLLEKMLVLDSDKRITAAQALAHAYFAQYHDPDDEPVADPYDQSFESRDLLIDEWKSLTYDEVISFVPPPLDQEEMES

NC1(Cc2ccc(Cl)cc2)CCN(c2ncnc3[nH]ccc23)CC1
inhibition [1]: 0%

NC1CCN(c2ncnc3[nH]ccc23)CC1
inhibition [2]: 2%

NCCc1ccc(-c2ncnc3[nH]cnc23)cc1
inhibition [3]: 53% | inhibition [4]: 30% | inhibition [5]: 86%

c1cnc2[nH]ccc2c1
inhibition [6]: 22%

CNCc1ccc(-c2ncnc3[nH]cnc23)cc1
inhibition [7]: 20.5%
